Test results as given in ChEMBL document CHEMBL1137846, “Estrogen receptor ligands. Part 7: Dihydrobenzoxathiin SERAMs with bicyclic amine side chains” (Bioorg Med Chem Lett, 2004).

Key:
[1] = test system: MCF7; test: cells; settings: Homo sapiens
[2] = biological target: T1, Estrogen receptor (Homo sapiens, UniProt P03372)
T1 sequence (P03372 whole entry): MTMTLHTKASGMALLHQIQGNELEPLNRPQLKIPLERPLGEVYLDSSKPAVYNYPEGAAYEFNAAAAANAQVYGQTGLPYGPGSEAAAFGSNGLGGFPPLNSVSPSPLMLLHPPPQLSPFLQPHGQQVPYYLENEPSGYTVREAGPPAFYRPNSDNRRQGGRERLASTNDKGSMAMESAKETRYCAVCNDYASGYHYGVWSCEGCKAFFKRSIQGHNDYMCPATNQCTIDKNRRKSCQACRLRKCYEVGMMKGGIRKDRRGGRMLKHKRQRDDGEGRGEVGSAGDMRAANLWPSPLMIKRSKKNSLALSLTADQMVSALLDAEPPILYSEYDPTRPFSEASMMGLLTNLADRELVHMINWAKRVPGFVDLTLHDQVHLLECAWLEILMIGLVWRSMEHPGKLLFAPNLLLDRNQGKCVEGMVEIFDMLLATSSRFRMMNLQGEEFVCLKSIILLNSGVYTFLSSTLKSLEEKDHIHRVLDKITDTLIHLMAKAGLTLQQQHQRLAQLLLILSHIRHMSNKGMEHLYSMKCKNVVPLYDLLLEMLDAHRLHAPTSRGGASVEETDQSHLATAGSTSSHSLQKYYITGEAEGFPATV
Description: Binding potency for human ER alpha

[3] = biological target: Estrogen receptor beta (Homo sapiens, UniProt Q92731)
Chain of Estrogen receptor beta (Q92731 whole entry): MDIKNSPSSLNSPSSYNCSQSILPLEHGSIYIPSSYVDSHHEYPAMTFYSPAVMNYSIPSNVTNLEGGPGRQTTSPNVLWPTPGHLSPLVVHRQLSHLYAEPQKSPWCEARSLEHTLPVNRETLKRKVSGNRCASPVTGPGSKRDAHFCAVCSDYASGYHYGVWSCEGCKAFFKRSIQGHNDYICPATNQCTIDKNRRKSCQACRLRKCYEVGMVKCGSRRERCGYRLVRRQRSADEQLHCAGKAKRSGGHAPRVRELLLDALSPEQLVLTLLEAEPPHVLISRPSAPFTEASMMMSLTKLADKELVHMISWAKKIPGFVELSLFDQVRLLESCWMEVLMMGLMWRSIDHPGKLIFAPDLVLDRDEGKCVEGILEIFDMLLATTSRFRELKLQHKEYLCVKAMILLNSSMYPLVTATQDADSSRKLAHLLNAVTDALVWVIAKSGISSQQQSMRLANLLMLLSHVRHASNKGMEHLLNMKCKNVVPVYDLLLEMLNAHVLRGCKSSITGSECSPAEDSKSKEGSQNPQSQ
Description: Binding potency for human ER beta

| IC50 [1] | IC50 [3] | SMILES | IC50 [2] |
| --- | --- | --- | --- |
| 2.2 nM | 51 nM | Oc1ccc([C@H]2Sc3cc(O)ccc3O[C@H]2c2ccc(OCCN3C4CCCC3CC4)cc2)cc1 | 0.6 nM |
| 0.4 nM | 33 nM | Oc1ccc([C@H]2Sc3cc(O)ccc3O[C@H]2c2ccc(OCCN3CC[C@H]4C[C@H]43)cc2)cc1 |  |
| 29.8 nM | 39 nM | Oc1ccc([C@H]2Sc3cc(O)ccc3O[C@H]2c2ccc(OCCN3CCC4(CCCC4)CC3)cc2)cc1 | 1.2 nM |
| 7.7 nM | 33 nM | Oc1ccc([C@H]2Sc3cc(O)ccc3O[C@H]2c2ccc(OCCN3C[C@H]4CCCC[C@H]4C3)cc2)cc1 | 1 nM |
| 3.6 nM | 118 nM | Oc1ccc([C@H]2Sc3cc(O)ccc3O[C@H]2c2ccc(OCCN3C4CCC3CC4)cc2)cc1 | 0.9 nM |
| 1.3 nM | 18 nM | Oc1ccc([C@H]2Sc3cc(O)ccc3O[C@H]2c2ccc(OCCN3C[C@H]4CCC[C@H]4C3)cc2)cc1 | 0.3 nM |
| 0.5 nM | 56 nM | Oc1ccc([C@H]2Sc3cc(O)ccc3O[C@H]2c2ccc(OCCN3CC[C@@H]4CC43)cc2)cc1 (single isomer, unassigned) |  |

| SMILES | IC50 [1] | IC50 [3] | IC50 [2] |
| --- | --- | --- | --- |
| Oc1ccc([C@H]2Sc3cc(O)ccc3O[C@H]2c2ccc(OCCN3C4CCCC3CCC4)cc2)cc1 | 3 nM | 47 nM | 0.6 nM |
| Oc1ccc([C@H]2Sc3cc(O)ccc3O[C@H]2c2ccc(OCCN3CC4CC5CC(C4)CC3C5)cc2)cc1 | 5.8 nM | 40 nM | 0.6 nM |
| Oc1ccc([C@H]2Sc3cc(O)ccc3O[C@H]2c2ccc(OCCN3CC4CCC4C3)cc2)cc1 (some centres not stated) | 2.5 nM | 85 nM | 0.8 nM |
| Oc1ccc([C@H]2Sc3cc(O)ccc3O[C@H]2c2ccc(OCCN3CC4(CCC4)C3)cc2)cc1 | 0.3 nM | 26 nM | 0.4 nM |
| Oc1ccc([C@H]2Sc3cc(O)ccc3O[C@H]2c2ccc(OCCN3CC4CCC3CC4)cc2)cc1 | 1.6 nM | 52 nM | 1.3 nM |
| Oc1ccc([C@H]2Sc3cc(O)ccc3O[C@H]2c2ccc(OCCN3CC4CC3CO4)cc2)cc1 (some centres not stated) | 3.3 nM | 73 nM | 0.7 nM |
